Results on eight compounds are retold here after patent publication US10189795B2, “Aryl amine substituted quinoxaline used as anticancer drugs” (priority 2014, dated 2019).

The test system of one data set is NCI-1703. Put plainly: cell viability of NCI-1703 cells, 1 and 10 uM of each erlotinib derivative, and IC50. Type of data set: cell-based. Conditions: Homo sapiens; for IC50: cell viability.
The test system of another data set is NCI-H226. Put plainly: cell viability of NCI-H226 cells, 1 and 10 uM. Type of data set: cell-based. Conditions: Homo sapiens.
In another data set the test system is A549. Put plainly: cell viability of A549 cells, 1 and 10 uM. Type of data set: cell-based. The note with it: Homo sapiens.
For another data set, the system named is H358. Put plainly: cell viability of H358 cells, 1 and 10 uM. Type of data set: cell-based. Conditions: Homo sapiens, NCI-H358.
In the next data set the test system is H2170. Put plainly: cell viability of H2170 cells, 1 and 10 uM. Conditions: Homo sapiens, NCI-H2170. Type of data set: cell-based.
The next data set relates to H520. Put plainly: cell viability of H520 cells, 1 and 10 uM. Type of data set: cell-based. Conditions: Homo sapiens, NCI-H520.
The subject of the next data set is SW900. Put plainly: cell viability of SW900 cells, 1 and 10 uM. Conditions: Homo sapiens. Type of data set: cell-based.
A further data set can be described thus: BA (%), Table 5. The note with it: in vivo.
Another data set concerns the target T1, SET-PP2Ac binding (Homo sapiens, UniProt Q01105).
T1 construct: His; purchased Genway (SET-His); Abnova (PP2Ac-GST) GWB-ATG319; H00005515
Put plainly: disruption of SET-PP2Ac binding (surface plasmon resonance, co-IP). Here is the method: Binding affinities of full-length SET and truncated SET to PP2Ac and the effect of the erlotinib derivatives of the present invention on disrupting SET and PP2Ac were analyzed. PP2Ac-GST recombinant protein was bound in the CMS chip pre-coated with GST-capture antibodies. Sensorgrams were generated by injecting several concentrations of the erlotinib derivatives of the present invention mixed with fixed-concentration of SET recombinant protein, or the mixture of different concentration of truncated SET proteins in a fixed-dose EMQA. PP2Ac-GST recombinant protein used for this experiment was purchased from Abnova (H00005515) and SET-His recombinant protein was obtained from Genway (GWB-ATG319).
EMQA reactivates PP2A by disrupting the binding of SET-PP2Ac. To validate the role of SET, the present invention generated Hep3B cells with ectopic expression of myc-tagged SET by transient transfection. […] With a fixed amount of PP2Ac coated on the CM chip, the present invention tested the effects of a fixed-dose of EMQA on interfering different proportions of full-length and truncated forms of SET proteins in SPR system. […] To validate the findings of this ex vivo system, the present invention generated cells with ectopic overexpression of these two truncated forms of Flag-tagged SET proteins by transient transfections.

A further data set deals with PP2A. Put plainly: PP2A phosphatase activity (malachite green-phosphate assay in cell lysate). Type of data set: cell-based. How it is done: The protein phosphatase activity in each cell lysate was determined by measuring the generation of free phosphate from threonine phosphopeptide using the malachite green-phosphate complex assay as described by the manufacturer (Upstate Biotechnology, Lake Placid, N.Y., USA). In brief, HCC cell lysates were first prepared in a low-detergent lysis buffer. […] After incubation for 10 min at 30° C., the malachite dye was added and free phosphate was measured by optical density at 650 nm. In order to avoid variation resulting from differences in the amount of immunoprecipitation protein between samples, the phosphatase activities were normalized to the amounts of PP2A immunoprecipitated, which were detected and quantified by immunoblot analysis for each treatment group.

The test system of another data set is PLC5 xenograft tumor. Put plainly: PLC5 xenograft tumor growth in nude mice. Type of data set: in vivo. The note with it: 10 mg/kg, oral gavage daily, 4 weeks, vs control arm. Here is the method:
Male NCr athymic nude mice (5-7 weeks of age) were obtained from the National Laboratory Animal Center (Taipei, Taiwan). All experimental procedures using these mice were performed in accordance with protocols approved by the Institutional Laboratory Animal Care and Use Committee of National Taiwan University. Each mouse was inoculated subcutaneously in the dorsal flank with 1×10^6 PLC5 or A549 cells suspended in serum-free medium containing 50% Matrigel (BD Biosciences, Bedford, Mass., USA). When tumors reached 100-150 mm^3, mice were treated with sorafenib, the erlotinib derivatives of the present invention, or vehicle (control) at 10 mg/kg/day daily by oral gavage for 4 weeks.
The present invention used a PLC5 xenograft mouse model to assess the effects of TD-52 in vivo. The present choose sorafenib as one of the comparative treatment arms. Tumor-bearing mice were administered sorafenib (10 mg/kg), TD-52 (10 mg/kg) or DMSO (vehicle, as control). […] The present invention further examined the xenografted tumors taken from mice receiving TD-52 and vehicle to confirm the molecular events in the tumor tissue. […] When PP2A activity was enhanced by TD-52, Akt was dephosphorylated, promoting HCC cell apoptosis.

Bounds are passed on as bounds.

T1 sequence (Q01105 1-277 isoform Q01105-2): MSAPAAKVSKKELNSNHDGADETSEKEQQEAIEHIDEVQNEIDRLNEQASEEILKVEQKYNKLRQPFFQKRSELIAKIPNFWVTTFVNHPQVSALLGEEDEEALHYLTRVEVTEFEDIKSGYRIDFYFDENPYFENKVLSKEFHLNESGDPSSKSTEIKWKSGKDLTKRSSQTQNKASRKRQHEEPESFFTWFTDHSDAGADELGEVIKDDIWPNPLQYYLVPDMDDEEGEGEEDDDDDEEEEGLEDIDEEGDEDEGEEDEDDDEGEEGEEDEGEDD

Regarding `Cc1ccc(Nc2nc3ccccc3nc2Nc2ccc(C)c(O)c2)cc1O` [TD66, 5,5′-(quinoxaline-2,3-diylbis(azanediyl))bis(2-methylphenol)], the viability at 1 µM in the data set on NCI-1703 amounted to 84.5 ± 2.3%; in the data set with NCI-H226 it was 71.2 ± 1.2%; in the data set on A549 it was 55.5 ± 5.1%; with H358, 96.6 ± 0.9%; with H2170, 101.5 ± 0.48%; in the data set on H520, 104 ± 8.53%. Moreover, the viability at 1 µM in the data set with SW900 is 113 ± 4.64%. Besides, the viability at 10 µM in the data set on NCI-1703 was determined as 10.1 ± 0.2%; with NCI-H226 it was 4.7 ± 0.1%; in the data set with A549, 11.1 ± 0.6%; with H358 it was 14.9 ± 3%; in the data set with H2170 it was 3.7 ± 1.37%; in the data set on H520 it was 51.7 ± 20.5%. The viability at 10 µM in the data set with SW900 was found to be 77.4 ± 20.5%. For the same compound, the “BA (%)” value in “BA (%), Table 5” is listed as 22%.

With `FS(F)(F)(F)(F)c1ccc(Nc2nc3ccccc3nc2Cl)cc1` [TD81, 3-chloro-N-(4-(Pentafluorothio)phenyl)quinoxalin-2-amine], the viability at 1 µM in the data set with NCI-1703 was 82.7 ± 5%; with NCI-H226, 100 ± 4.1%; in the data set on A549, 95.6 ± 15.9%; in the data set with H358 it was 116 ± 5.9%; in the data set on H2170, 100 ± 6.2%; in the data set on H520, 103.4 ± 0.14%. Besides, the viability at 1 µM in the data set with SW900 came to 86.9 ± 7.36%. Further, the viability at 10 µM with NCI-1703 stood at 85.8 ± 0.1%; with NCI-H226, 92 ± 3.8%; in the data set with A549, 69.4 ± 3.4%; in the data set with H358, 75.5 ± 3.9%; in the data set with H2170, 82.7 ± 2.44%; with H520, 72.4 ± 11.3%. Further, the viability at 10 µM in the data set on SW900 is 60.2 ± 11.2%. Moreover, on SET-PP2Ac binding, the “minimal concentration to disrupt SET-PP2Ac binding” value is listed as over 200 nM. Also, in the data set on PP2A, the “minimal concentration for PP2A activation” value is given as over 200 nM.

Turning to `C#Cc1cccc(Nc2nc3ccc([N+](=O)[O-])cc3nc2Nc2cccc(C#C)c2)c1` [TD604, N^2,N^3-bis(3-ethynylphenyl)-6-nitroquinoxaline-2,3-diamine], the viability at 1 µM stood at 15.2 ± 0.5% with NCI-1703; 40.3 ± 1.7% in the data set on NCI-H226; 117 ± 7.2% with A549; 115 ± 9% with H358; 74.7 ± 6.38% with H2170; 30.5 ± 13.9% in the data set with H520. The viability at 1 µM in the data set on SW900 was 86.1 ± 22.8%. For the same compound, the viability at 10 µM with NCI-1703 is 12.5 ± 0.3%; with NCI-H226 it was 5.3 ± 0.3%; in the data set with A549, 132 ± 5.1%; in the data set on H358, 116 ± 8.5%; in the data set with H2170, 2.06 ± 0.66%; in the data set on H520, 0.99 ± 0.02%. In the data set with SW900, the viability at 10 µM turned out to be 0%. In the data set with NCI-1703, this compound yielded an IC50 of 0.6 µM. Besides, the “BA (%)” value in the data set “BA (%), Table 5” is recorded as 57%. The “minimal concentration to disrupt SET-PP2Ac binding” value on SET-PP2Ac binding was in the range of 50 to 100 nM. The “minimal concentration for PP2A activation” value in the data set with PP2A is under 50 nM.

On to `C#Cc1cccc(Nc2nc3cc([N+](=O)[O-])ccc3nc2Nc2ccc(OC)cc2)c1` [TD605, N^3-(3-ethynylphenyl)-N^2-(4-methoxyphenyl)-6-nitroquinoxaline-2,3-diamine], for which the viability at 1 µM in the data set on NCI-1703 came out at 20.8 ± 0.4%; in the data set with NCI-H226 it was 53.1 ± 1.9%; with A549, 83.7 ± 7%; in the data set with H358, 101 ± 13.6%; in the data set on H2170 it was 108 ± 3.88%; with H520, 89.1 ± 6.09%. Moreover, in the data set on SW900, the viability at 1 µM worked out at 87.1 ± 27.2%. For the same compound, the viability at 10 µM came to 13.8 ± 0.2% in the data set with NCI-1703; 5.5 ± 0.2% in the data set with NCI-H226; 113 ± 18.3% in the data set with A549; 113 ± 12% in the data set on H358; 5.53 ± 0.81% in the data set with H2170; 0.78 ± 0.39% in the data set on H520. Further, in the data set with SW900, the viability at 10 µM amounted to 2.21 ± 1.34%. Further, the concentration for half-maximal inhibition (IC50) with NCI-1703 came to 0.5 µM. Further, the “minimal concentration to disrupt SET-PP2Ac binding” value on SET-PP2Ac binding was 100 to 200 nM. In addition, the “minimal concentration for PP2A activation” value in the data set with PP2A was in the range of 100 to 200 nM.

Regarding `Nc1ccc2nc(Nc3ccc(C(F)(F)F)cc3)c(Nc3ccc(C(F)(F)F)cc3)nc2c1` [TD607, N^2,N^3-bis(4-(trifluoromethyl)phenyl)quinoxaline-2,3,6-triamine], the viability at 1 µM in the data set with NCI-1703 is 49.7 ± 2.7%; in the data set with NCI-H226, 106 ± 2.6%; in the data set with A549, 100 ± 5.9%; with H358, 116 ± 15.5%; with H2170, 104 ± 14.2%; in the data set with H520, 63.4 ± 53.7%. For the same compound, the viability at 1 µM with SW900 was 85.9 ± 10.4%. The viability at 10 µM in the data set on NCI-1703 is 13.4 ± 1.6%; with NCI-H226, 36.7 ± 2.2%; in the data set on A549 it was 9.5 ± 0.6%; with H358, 12.1 ± 0.3%; in the data set on H2170 it was 1.34 ± 0.93%; with SW900 it was 0.61 ± 5%. In the data set on NCI-1703, this compound showed an IC50 of 1.3 µM. Moreover, the “minimal concentration to disrupt SET-PP2Ac binding” value at SET-PP2Ac binding is over 200 nM. In addition, the “minimal concentration for PP2A activation” value with PP2A is listed as over 200 nM.

Turning to `COc1cccc(Nc2nc3ccc([N+](=O)[O-])cc3nc2Nc2cccc(OC)c2)c1` [TD608, N^2,N^3-bis(3-methoxyphenyl)-6-nitroquinoxaline-2,3-diamine], the viability at 1 µM turned out to be 52.8 ± 4.5% in the data set on NCI-1703; 104 ± 2.5% in the data set with NCI-H226; 71.5 ± 35% with A549; 110 ± 44% in the data set with H358; 113 ± 8.63% with H2170; 97 ± 19.8% in the data set with H520. In addition, the viability at 1 µM in the data set with SW900 was 114 ± 2.6%. For the same compound, the viability at 10 µM was determined as 12.7 ± 0.9% in the data set on NCI-1703; 40.6 ± 2.4% with NCI-H226; 10.3 ± 3.5% in the data set on A549; 31.7 ± 33.3% in the data set with H358; 4.71 ± 0.24% with H2170; 1.77 ± 1.7% in the data set with H520. Besides, the viability at 10 µM in the data set with SW900 amounted to 39.8 ± 51.2%. In addition, the “minimal concentration to disrupt SET-PP2Ac binding” value on SET-PP2Ac binding was over 200 nM. Besides, in the data set on PP2A, the “minimal concentration for PP2A activation” value is over 200 nM.

`C#Cc1cccc(Nc2nc3cc([N+](=O)[O-])ccc3nc2Nc2ccc(O)cc2)c1` [TD619, 4-(2-(3-ethynylphenylamino)-7-nitroquinoxalin-3-ylamino)phenol]: the viability at 1 µM with NCI-1703 came out at 119 ± 11.2%; in the data set on NCI-H226, 110 ± 18.2%; with A549 it was 105 ± 19.5%; in the data set with H358, 87.5 ± 3.6%. The viability at 10 µM in the data set on NCI-1703 is 33.6 ± 5.4%; with NCI-H226, 19.5 ± 0.7%; with A549 it was 20.9 ± 1.7%; in the data set with H358 it was 22.1 ± 0.6%. The “BA (%)” value in “BA (%), Table 5” is given as 62%.

Regarding `CNC(=O)c1cc(Oc2ccc(NC(=O)Nc3ccc(Cl)c(C(F)(F)F)c3)cc2)ccn1` [sorafenib, reference compound], the tumor size result with PLC5 xenograft tumor is recorded as “smaller than those of the control arm”.
